US20130295080A1, “Pharmaceutical composition for treating melasma and preparation method thereof” (Jilin Zixin Pharmaceutical Research Institution LLC, priority 2011, published 2013)

How the values were obtained:
Type in all cases: in vivo, Kunming female mice
NO in mice skins = assay: NO content in mice skins; details: vitamin C group, dosage 0.1, once a day for 30 d, progesterone-modeled mice
MDA in mice skins = assay: MDA content in mice skins
SOD in mice skins = assay: SOD in mice skins; details: vitamin C group, dosage 0.1, once a day for 30 d, progesterone-modeled mice
SOD in mice livers = SOD in mice livers (reagent kit, spectrophotometer); details: vitamin C group
[1] = test system: melanin cells in skins of mice; assay: melanin cells in skins of mice, HMB45 immunohistochemistry with image analysis; details: mouse skin, vitamin C group, progesterone-modeled mice
MDA in mice livers = assay: MDA content in mice livers; details: vitamin C group, dosage 0.1, once a day for 30 d, progesterone-modeled mice
[2] = viscosity of the whole blood of mice with progesterone-induced melasma; details: vitamin C group
[3] = dosage 0.1, once a day for 30 d, progesterone-modeled mice
[4] = melanin-positive target, dosage 0.1, once a day for 30 d

O=C1O[C@H]([C@@H](O)CO)C(O)=C1O [vitamin C]
NO (NO in mice skins): 1.71 ± 0.52
MDA (MDA in mice skins; vitamin C group, dosage 0.1, once a day for 30 d, progesterone-modeled mice): 4.20 ± 1.34
MDA contents compared with the modeling control group (MDA in mice skins; vitamin group): obviously decreased
SOD (SOD in mice skins): 19.95 ± 5.33
SOD activities compared with the modeling control group (SOD in mice livers): obviously increased
SOD (SOD in mice livers; [3]): 45.62 ± 16.04
average optical density [1, 4]: 0.33 ± 0.14
integrated optical density [1, 4]: 1152.52 ± 344.09
average size of positive target ([1]; dosage 0.1, once a day for 30 d): 3720.56 ± 1191.13
MDA (MDA in mice livers): 4.58 ± 1.26
blood viscosity with different shear rates (mPas) 1/s ([2]; shear rate 1/s, dosage 0.1, once a day for 30 d, progesterone-modeled mice): 29.22 ± 2.18 mPas
blood viscosity with different shear rates (mPas) 30/s ([2]; shear rate 30/s, dosage 0.1, once a day for 30 d, progesterone-modeled mice): 11.22 ± 1.75 mPas
blood viscosity with different shear rates (mPas) 100/s ([2]; shear rate 100/s, dosage 0.1, once a day for 30 d, progesterone-modeled mice): 4.60 ± 1.36 mPas
blood viscosities with different shear rates compared with the normal control group [2]: obviously increased
blood viscosity with different shear rates (mPas) 3/3 [2, 3]: 28.85 ± 4.35 mPas
